From patent publication US12485169B2, “Compounds” (GREY WOLF THERAPEUTICS LIMITED, priority 2018, dated 2025)

Molecular target: T1, Purified ERAP1 (37-941)-10His (ERAP1) (Homo sapiens, UniProt Q9NZ08)
T1 construct: Purified ERAP1 (37-941)-10His (ERAP1)
Experiment: ERAP1 mediated hydrolysis of an amide substrate (10-mer inhibition assay), biochemical system
Details: 10-mer substrate, 23° C., 1 h, excitation 279 nm / emission 355 nm; read-out: IC50 vs Decapeptide WRVYEKC(Dnp)ALK-acid (where Dnp is Dinitrophenyl maleimide) (10-mer)
Experimental: However, as ERAP1 hydrolyses the N-terminal amide bond and tryptophan is released this internal quenching is lost and the reaction is monitored by the increase in tryptophan fluorescence over the course of the assay. For the purposes of this application this assay is referred to as the “10mer inhibition assay” and compound potencies are calculated and expressed as IC50 as would be familiar to a person skilled in the art.
Biological Assay 1: ERAP1 Mediated Hydrolysis of an Amide Substrate Measured in a Biochemical System
Decapeptide WRVYEKC(Dnp)ALK-acid (where Dnp is Dinitrophenyl maleimide) (10-mer) L-Leucine 7-amido-4-methylcoumarin (L-AMC)
12.5 μL ERAP1 enzyme in 1×AB was combined with 250 nL test compound in DMSO. […] For detection, plates were read at excitation 365 nm and emission 442 nm (L-AMC) or excitation 279 nm and emission 355 nm (10-mer).

T1 sequence (Q9NZ08 37-941): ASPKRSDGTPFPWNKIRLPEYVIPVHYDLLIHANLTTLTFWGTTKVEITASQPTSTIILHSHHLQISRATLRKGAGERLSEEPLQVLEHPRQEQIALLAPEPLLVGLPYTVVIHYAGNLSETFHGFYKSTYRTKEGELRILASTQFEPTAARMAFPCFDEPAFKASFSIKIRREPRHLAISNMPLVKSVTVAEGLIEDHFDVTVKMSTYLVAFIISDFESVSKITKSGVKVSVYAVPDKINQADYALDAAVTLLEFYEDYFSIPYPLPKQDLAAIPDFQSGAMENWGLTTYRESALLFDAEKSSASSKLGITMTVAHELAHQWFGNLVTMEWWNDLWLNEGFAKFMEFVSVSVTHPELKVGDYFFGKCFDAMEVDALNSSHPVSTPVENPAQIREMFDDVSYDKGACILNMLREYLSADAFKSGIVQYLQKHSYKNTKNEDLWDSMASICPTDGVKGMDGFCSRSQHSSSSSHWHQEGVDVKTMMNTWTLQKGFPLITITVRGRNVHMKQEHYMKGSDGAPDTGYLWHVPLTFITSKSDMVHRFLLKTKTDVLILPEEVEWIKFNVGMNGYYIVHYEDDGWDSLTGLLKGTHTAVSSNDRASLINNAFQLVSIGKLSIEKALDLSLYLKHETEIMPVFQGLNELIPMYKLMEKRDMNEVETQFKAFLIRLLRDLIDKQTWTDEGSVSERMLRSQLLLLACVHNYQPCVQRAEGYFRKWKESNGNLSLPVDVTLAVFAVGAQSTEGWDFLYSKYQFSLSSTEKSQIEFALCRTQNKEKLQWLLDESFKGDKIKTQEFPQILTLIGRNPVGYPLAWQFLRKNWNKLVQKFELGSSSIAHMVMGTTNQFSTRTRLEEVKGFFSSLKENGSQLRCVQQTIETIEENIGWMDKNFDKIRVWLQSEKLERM

COc1ccc(C(=O)O)cc1S(=O)(=O)Nc1cc(C(F)(F)F)ccc1N1C[C@H](O)[C@@H](F)C1 (relative stereo) [Example 190, 3-(N-(2-(trans-3-fluoro-4-hydroxypyrrolidin-1-yl)-5-(trifluoromethyl)phenyl)sulfamoyl)-4-methoxybenzoic acid]
IC50: < 5 µM

CCc1ccc(C(=O)O)cc1S(=O)(=O)Nc1cc(C(F)(F)F)ccc1N1CCCCC1 [Example 1, 4-Ethyl-3-(N-(2-(piperidin-1-yl)-5-(trifluoromethyl)phenyl)sulfamoyl)benzoic acid]
IC50: < 0.5 µM

CC(C)c1ccc(C(=O)O)cc1S(=O)(=O)Nc1cc(C(F)(F)F)ccc1N1CCCCC1 [Example 3, 4-isopropyl-3-(N-(2-(piperidin-1-yl)-5-(trifluoromethyl)phenyl)sulfamoyl)benzoic acid]
IC50: < 0.5 µM

O=C(O)c1ccc(OC(F)(F)F)c(S(=O)(=O)Nc2cc(C(F)(F)F)ccc2N2CCCCC2)c1 [Example 4, 3-(N-(2-(piperidin-1-yl)-5-(trifluoromethyl)phenyl)sulfamoyl)-4-(trifluoromethoxy)benzoic acid]
IC50: < 0.5 µM

COc1ccc(C(=O)O)cc1S(=O)(=O)Nc1cc(C(F)(F)F)ccc1N1C[C@H](C)C[C@H](C)C1 [Example 6, 3-(N-(2-(cis-3,5-dimethylpiperidin-1-yl)-5-(trifluoromethyl)phenyl)sulfamoyl)-4-methoxybenzoic acid]
IC50: < 0.5 µM

COc1ccc(C(=O)O)cc1S(=O)(=O)Nc1cc(C(F)(F)F)ccc1N1CC2CCC(C1)O2 [Example 7, 3-(N-(2-(8-oxa-3-azabicyclo[3.2.1]octan-3-yl)-5-(trifluoromethyl)phenyl)sulfamoyl)-4-methoxybenzoic acid]
IC50: < 5 µM

COc1ccc(C(=O)O)cc1S(=O)(=O)Nc1cc(C(F)(F)F)ccc1N1C[C@H]2CN(C)C[C@H]2C1 [Example 8, 4-methoxy-3-(N-(2-(cis-5-methylhexahydropyrrolo[3,4-c]pyrrol-2 (1H)-yl)-5-(trifluoromethyl)phenyl)sulfamoyl)benzoic acid]
IC50: > 5 µM

COc1ccc(C(=O)O)cc1S(=O)(=O)Nc1cc(C(F)(F)F)ccc1N1CCCC(F)(F)C1 [Example 9, 3-(N-(2-(3,3-difluoropiperidin-1-yl)-5-(trifluoromethyl)phenyl)sulfamoyl)-4-methoxybenzoic acid]
IC50: < 0.5 µM

COc1ccc(C(=O)O)cc1S(=O)(=O)Nc1cc(C(F)(F)F)ccc1N1C2CCCC1CC2 [Example 10, 3-(N-(2-(8-azabicyclo[3.2.1]octan-8-yl)-5-(trifluoromethyl)phenyl)sulfamoyl)-4-methoxybenzoic acid]
IC50: < 0.5 µM

COc1ccc(C(=O)O)cc1S(=O)(=O)Nc1cc(C(F)(F)F)ccc1N1CC2(CCCO2)C1 [Example 11, 3-(N-(2-(5-oxa-2-azaspiro[3.4]octan-2-yl)-5-(trifluoromethyl)phenyl)sulfamoyl)-4-methoxybenzoic acid]
IC50: < 5 µM

COc1ccc(C(=O)O)cc1S(=O)(=O)Nc1cc(C(F)(F)F)ccc1N1CCC(F)(F)CC1 [Example 12, 3-(N-(2-(4,4-difluoropiperidin-1-yl)-5-(trifluoromethyl)phenyl)sulfamoyl)-4-methoxybenzoic acid]
IC50: < 0.5 µM

COc1ccc(C(=O)O)cc1S(=O)(=O)Nc1cc(C(F)(F)F)ccc1N1CC2CCC(C1)C2O (centres unmarked) [Example 13, 3-(N-(2-(8-hydroxy-3-azabicyclo[3.2.1]octan-3-yl)-5-(trifluoromethyl)phenyl)sulfamoyl)-4-methoxybenzoic acid]
IC50: < 0.5 µM

COc1ccc(C(=O)O)cc1S(=O)(=O)Nc1cc(C(F)(F)F)ccc1N1CCC(O)C(F)(F)C1 (centres unmarked) [Example 14, 3-(N-(2-(3,3-difluoro-4-hydroxypiperidin-1-yl)-5-(trifluoromethyl)phenyl)sulfamoyl)-4-methoxybenzoic acid]
IC50: < 0.5 µM

CCC1(O)CCN(c2ccc(C(F)(F)F)cc2NS(=O)(=O)c2cc(C(=O)O)ccc2OC)CC1 [Example 15, 3-(N-(2-(4-ethyl-4-hydroxypiperidin-1-yl)-5-(trifluoromethyl)phenyl)sulfamoyl)-4-methoxybenzoic acid]
IC50: < 0.5 µM

COc1ccc(C(=O)O)cc1S(=O)(=O)Nc1cc(C(F)(F)F)ccc1N1CCC(OC)C(C)(C)C1 (centres unmarked) [Example 16, 4-methoxy-3-(N-(2-(4-methoxy-3,3-dimethylpiperidin-1-yl)-5-(trifluoromethyl)phenyl)sulfamoyl)benzoic acid]
IC50: < 0.5 µM

COc1ccc(C(=O)O)cc1S(=O)(=O)Nc1cc(C(F)(F)F)ccc1N1CCC(O)(C(F)(F)F)CC1 [Example 17, 3-(N-(2-(4-hydroxy-4-(trifluoromethyl)piperidin-1-yl)-5-(trifluoromethyl)phenyl)sulfamoyl)-4-methoxybenzoic acid]
IC50: > 5 µM

COc1ccc(C(=O)O)cc1S(=O)(=O)Nc1cc(C(F)(F)F)ccc1N1CC(C)(O)C1 [Example 18, 3-(N-(2-(3-hydroxy-3-methylazetidin-1-yl)-5-(trifluoromethyl)phenyl)sulfamoyl)-4-methoxybenzoic acid]
IC50: < 5 µM

COc1ccc(C(=O)O)cc1S(=O)(=O)Nc1cc(C(F)(F)F)ccc1N1CC2(CCO2)C1 [Example 19, 3-(N-(2-(1-oxa-6-azaspiro[3.3]heptan-6-yl)-5-(trifluoromethyl)phenyl)sulfamoyl)-4-methoxybenzoic acid]
IC50: < 5 µM

COc1ccc(C(=O)O)cc1S(=O)(=O)Nc1cc(C(F)(F)F)ccc1N1CCC(C)(O)C1 (centres unmarked) [Example 20, 3-(N-(2-(3-hydroxy-3-methylpyrrolidin-1-yl)-5-(trifluoromethyl)phenyl)sulfamoyl)-4-methoxybenzoic acid]
IC50: < 5 µM

COc1ccc(C(=O)O)cc1S(=O)(=O)Nc1cc(C(F)(F)F)ccc1N1CC(O)(C2CC2)C1 [Example 21, 3-(N-(2-(3-cyclopropyl-3-hydroxyazetidin-1-yl)-5-(trifluoromethyl)phenyl)sulfamoyl)-4-methoxybenzoic acid]
IC50: > 5 µM

COc1ccc(C(=O)O)cc1S(=O)(=O)Nc1cc(C(F)(F)F)ccc1N1CC(C)(OC)C1 [Example 22, 4-methoxy-3-(N-(2-(3-methoxy-3-methylazetidin-1-yl)-5-(trifluoromethyl)phenyl)sulfamoyl)benzoic acid]
IC50: > 5 µM

COc1ccc(C(=O)O)cc1S(=O)(=O)Nc1cc(C(F)(F)F)ccc1N1[C@@H]2CC[C@H]1C[C@@H](O)C2 [Example 23, 3-(N-(2-(endo-3-hydroxy-8-azabicyclo [3.2.1]octan-8-yl)-5-(trifluoromethyl)phenyl)sulfamoyl)-4-methoxybenzoic acid]
IC50: > 5 µM

COc1ccc(C(=O)O)cc1S(=O)(=O)Nc1cc(C(F)(F)F)ccc1N1CCC(O)C(C)(C)C1 (centres unmarked) [Example 24, 3-(N-(2-(4-hydroxy-3,3-dimethylpiperidin-1-yl)-5-(trifluoromethyl)phenyl)sulfamoyl)-4-methoxybenzoic acid]
IC50: < 0.5 µM

COc1ccc(C(=O)O)cc1S(=O)(=O)Nc1cc(C(F)(F)F)ccc1N1C[C@H]2CCCC[C@H]2C1 [Example 25, 4-methoxy-3-(N-(2-(cis-octahydroisoindol-2-yl)-5-(trifluoromethyl)phenyl)sulfamoyl)benzoic acid]
IC50: < 5 µM

COc1ccc(C(=O)O)cc1S(=O)(=O)Nc1cc(C(F)(F)F)ccc1N1CC(O)(C(F)(F)F)C1 [Example 26, 3-(N-(2-(3-hydroxy-3-(trifluoromethyl)azetidin-1-yl)-5-(trifluoromethyl)phenyl)sulfamoyl)-4-methoxybenzoic acid]
IC50: < 0.5 µM

COc1ccc(C(=O)O)cc1S(=O)(=O)Nc1cc(C(F)(F)F)ccc1N1CC[C@@H](O)[C@@H](F)C1 [Example 27, 3-(N-(2-((3S,4R)-3-fluoro-4-hydroxypiperidin-1-yl)-5-(trifluoromethyl)phenyl)sulfamoyl)-4-methoxybenzoic acid]
IC50: < 5 µM

COc1ccc(C(=O)O)cc1S(=O)(=O)Nc1cc(C(F)(F)F)ccc1N1CCC(C)(O)CC1 [Example 28, 3-(N-(2-(4-hydroxy-4-methylpiperidin-1-yl)-5-(trifluoromethyl)phenyl)sulfamoyl)-4-methoxybenzoic acid]
IC50: < 0.5 µM

COc1ccc(C(=O)O)cc1S(=O)(=O)Nc1cc(C(F)(F)F)ccc1N1CCCC(C)(O)C1 (centres unmarked) [Example 29, 3-(N-(2-(3-hydroxy-3-methylpiperidin-1-yl)-5-(trifluoromethyl)phenyl)sulfamoyl)-4-methoxybenzoic acid]
IC50: < 0.5 µM

CCc1ccc(C(=O)O)cc1S(=O)(=O)Nc1cc(C(F)(F)F)ccc1N1C[C@H](C)C[C@H](C)C1 [Example 30]
IC50: < 0.5 µM

COc1ccc(C(=O)O)cc1S(=O)(=O)Nc1cc(C(F)(F)F)ccc1N1CCCCC1(C)C [Example 31, 3-(N-(2-(2,2-dimethylpiperidin-1-yl)-5-(trifluoromethyl)phenyl)sulfamoyl)-4-methoxybenzoic acid]
IC50: < 0.5 µM

COc1ccc(C(=O)O)cc1S(=O)(=O)Nc1cc(C(F)(F)F)ccc1N1CCCOCC1 [Example 32, 3-(N-(2-(1,4-oxazepan-4-yl)-5-(trifluoromethyl)phenyl)sulfamoyl)-4-methoxybenzoic acid]
IC50: < 0.5 µM

COc1ccc(C(=O)O)cc1S(=O)(=O)Nc1cc(C(F)(F)F)ccc1N1CCC2(CC1)OCc1ccccc12 [Example 33, 3-(N-(2-(spiro[isobenzofuran-1,4′-piperidin]-1′-yl)-5-(trifluoromethyl)phenyl)sulfamoyl)-4-methoxybenzoic acid]
IC50: < 0.5 µM
